Where a name gives a salt, the structure may show the parent alone.
Key:
Format in all cases: cell-based, human
astrocytes = assay: TdTom-EV uptake by astrocytes with endocytosis inhibitors (flow cytometry); conditions: 30 min pretreatment: chlorpromazine 20 μM, EIPA 50 μM, filipin III 10 μM, ML141 100 μM, CAS 1177865-17-6 10 μM; 3 hours with EVs
Text: To elucidate the mechanisms underlying the uptake of breast cancer-derived EVs by astrocytes, the possibility of the involvement of specific endocytosis mechanism(s) in this uptake was explored. Endocytic pathways such as macropinocytosis, clathrin-dependent and caveolin-dependent endocytosis have been commonly reported to be involved in the uptake of EVs by different cell types^16.
Next, the role of clathrin-caveolin-independent pathways in EV uptake was explored, focusing on rac1 and Cdc42, two major players in this process^17.
To evaluate the uptake of EVs by astrocytes for endocytosis inhibition studies, astrocytes were treated with chlorpromazine hydrochloride (Millipore Sigma, Cat #C8138, 20 μM), 5-(N-Ethyl-N-isopropyl) amiloride (EIPA) (50 μM, Tocris, Cat #3378), and filipin III (10 μM, Millipore Sigma, Cat #F4767), CDC42/Rac1 inhibitor, ML141 (100 μM, Millipore Sigma, Cat #217708), and rac1 inhibitor, CAS 1177865-17-6 (10 μM, Millipore Sigma, Cat #553502) for 30 min.

[1] = tested on: brain endothelial monolayer; assay: Static Transwell BBB model, transport of Gaussia luciferase-labeled Br-EVs; conditions: 30 min pretreatment, then Br-EVs 2 hours at 37° C.
Description: To verify that the source of the detected signal in the abluminal chamber was the luciferase associated with intact EVs as opposed to free luciferase, the media from the lower chamber was ultracentrifuged on an iodixanol OPTIPREP™ density gradient. As a positive control, Gaussia luciferase-labeled Br-EVs were added directly to the top of a gradient for ultracentrifugation.
To evaluate the effect of temperature, filters were incubated at either 4° C. or 37° C. To evaluate the effect of endocytosis, filters were pretreated with Dynasore hydrate (Millipore Sigma, Cat #D7693) for 30 minutes prior to adding the EVs and then incubated at 37° C. The media from the lower chamber was collected after 2 hours and luminescence intensity was measured as described before. […] After 4 hours of ultracentrifugation, different density fractions were isolated and luminescence intensity was measured for each fraction. […] After 2 hours of incubation, the permeability of the filters to 10 KDa ALEXA FLUOR™ 647 Dextran and 70 KDa FITC-dextran was measured as described above.

brain endothelial cells = assay: TdTom-Br-EV uptake by brain endothelial cells with endocytosis inhibitors (flow cytometry); conditions: 30 min pretreatment: chlorpromazine 20 μM, ML141 100 μM, EIPA 100 μM, cytochalasin D 500 nM, filipin III 10 μM; 3 hours with EVs
Text: The mechanistic details of Br-EV transport was further explored through brain endothelial cells by focusing on the three major steps of transcytosis: 1) endocytosis through the apical (luminal) membrane of brain endothelial cells, 2) transfer through the endocytic pathway, and 3) release into the extracellular environment from the basolateral (abluminal) membrane. To evaluate the mechanism(s) of uptake, brain endothelial cells were pretreated with chemical inhibitors of the different endocytosis pathways and measured the uptake of TdTom-Br-EVs via flow cytometry.
To evaluate the uptake of EVs by brain ECs, astrocytes and pericytes, cells grown to confluence in 96-well plates were incubated with 2×10^9 particle/well of tdTomato P- and Br-EVs. After 2 hours of incubation, cells were washed for 3 times and were fixed for imaging. Images from four different fields were taken using a Zeiss Fluorescent microscope and the level of fluorescence intensity was analyzed using the ImageJ software. To eliminate the confounding effect of cell size on the uptake level, fluorescent intensity for tdTom-EVs was measured per unit of cell surface area. For endocytosis inhibition studies, brain ECs cultured in 12-well plates were treated with chlorpromazine hydrochloride (Millipore Sigma, Cat #C8138, 20 μM), ML141 (100 μM, Millipore Sigma, Cat #217708), 5-(N-Ethyl-N-isopropyl) amiloride (EIPA) (100 μM, Tocris, Cat #3378), cytochalasin D (500 nM, Tocris, Cat #1233), and filipin III (10 μM, Millipore Sigma, Cat #F4767) for 30 minutes prior to addition of TdTom-Br-EVs (10^10 particle/well). Following 3 hours of incubation with EVs, cells were washed and EV uptake was measured by flow cytometry using a BD FACSCalibur flow cytometer (BD Biosciences, San Jose, Calif.).

## CCN(CC)CCCC(C)Nc1nc(C)cc(Nc2ccc3nc(C)cc(N)c3c2)n1.Cl.Cl.Cl (centres unmarked) [CAS 1177865-17-6]
astrocytes
  uptake of breast cancer-derived EVs by astrocytes: no effect

## O=C(N/N=C/c1ccc(O)c(O)c1)c1cc2ccccc2cc1O [Dynasore]
[1]
  abluminal signal of Br-EV transport: dose-dependent decrease

## CCN(c1nc(N)c(C(=O)N=C(N)N)nc1Cl)C(C)C [EIPA, 5-(N-Ethyl-N-isopropyl) amiloride]
astrocytes
  uptake of breast cancer-derived EVs by astrocytes: did not affect
Brain endothelial cells
  uptake of Br-EVs by brain endothelial cells: significant decrease

## CCCCC[C@@H](O)[C@H]1C(=O)O[C@H](C)[C@@H](O)/C=C/C=C/C=C/C=C/C=C(\C)[C@@H](O)C[C@H](O)C[C@H](O)C[C@H](O)C[C@H](O)C[C@H](O)C[C@@H]1O [Filipin, filipin III]
astrocytes
  uptake of breast cancer-derived EVs by astrocytes: did not affect
Brain endothelial cells
  uptake of Br-EVs by brain endothelial cells: no effect

## COc1ccc(C2=NN(c3ccc(S(N)(=O)=O)cc3)C(c3ccccc3)C2)cc1 (centres unmarked) [ML141]
astrocytes
  uptake of breast cancer-derived EVs by astrocytes: significantly decreased
Brain endothelial cells
  uptake of Br-EVs by brain endothelial cells: significantly decreased

## CN(C)CCCN1c2ccccc2Sc2ccc(Cl)cc21 [chlorpromazine, chlorpromazine hydrochloride]
astrocytes
  uptake of breast cancer-derived EVs by astrocytes: did not affect
Brain endothelial cells
  uptake of Br-EVs by brain endothelial cells: significantly decreased

## C=C1[C@@H](C)[C@H]2[C@H](Cc3ccccc3)NC(=O)[C@]23[C@H](OC(C)=O)/C=C/[C@@](C)(O)C(=O)[C@@H](C)C/C=C/[C@H]3[C@@H]1O [cytochalasin D]
Brain endothelial cells
  uptake of Br-EVs by brain endothelial cells: significant decrease

Source: patent US20220275371A1, “USE OF RAB7 GTPASE (RAB7) INHIBITORS IN ENHANCING PERMEABILITY OF THE BLOOD BRAIN BARRIER (BBB)” (Children's Medical Center Corporation, priority 2019, published 2022)
